Laboratory results published in ChEMBL document CHEMBL1155525, “Substituted 2H-isoquinolin-1-one as potent Rho-Kinase inhibitors. Part 1: Hit-to-lead account” (Bioorg Med Chem Lett, 2010).
In brackets after ≈: the same amount, converted by molar mass.

What was measured:
in vitro [1] = details: human, liver microsomes
[2] = Solubility at pH 7.4; format: physicochemical; details: buffer
in vivo [3] = details: rat, iv, 1 mg/kg
[4] = Oral bioavailability in rat at 10 mg/kg; format: ADME, organism-based; details: in vivo
in vivo [5] = details: rat
in vitro [6] = details: rat, liver microsomes
in vivo [7] = details: rat, plasma

half-life (in vitro [1]) | solubility [2] | clearance (in vivo [3]) | bioavailability [4] | AUC (in vivo [5]) | half-life (in vitro [6]) | half-life (in vivo [7]) | Structure (SMILES)
21 min | 16 µg/mL (≈ 43.5 µM) | 82 mL/min/kg | 64% | 1290 ng·h/mL | 7 min | 162 min | O=C(Nc1cc2cc[nH]c(=O)c2cc1Cl)C(NC1CC1)c1ccccc1 (stereo not drawn)
 | 6 µg/mL (≈ 16.9 µM) |  | 2% | 30 ng·h/mL |  |  | CN(C)C(C(=O)Nc1cc2cc[nH]c(=O)c2cc1Cl)c1ccccc1 (stereo not drawn)
> 90 min | > 32 µg/mL |  |  |  |  |  | C[C@@H](N)[C@H]1CC[C@H](C(=O)Nc2ccncc2)CC1.Cl.Cl
 | > 60 µg/mL |  |  |  |  |  | O=S(=O)(c1cccc2cnccc12)N1CCCNCC1 [FASUDIL]
